Laboratory results: US10485885B2, “Compositions and methods for delivery of agents” (ModernaTX, Inc., priority 2015, dated 2019)

Tested on: circulating B cells and monocytes
Assay: B cell, B1a cell and monocyte frequencies and activation in non-human primate PBMCs
Assay type: in vivo, cynomolgus monkeys
Method: The percentage of monocyte activation was also measured at pre-bleed, day 1, day 22, day 43, and day 44 of the study.
FIGS. 84A and 84B show the EPO expression after the first injection and after the fifth injection. In particular, the concentration of EPO (ng/mL) was measured at 2 hours, 6 hours, 12 hours, 24 hours, and 48 hours following the first injection and the fifth injection. FIGS. 85A-85E show the EPO expression for each of the co-medications on day 1 and day 29 of the study. In particular, the concentration of EPO (ng/mL) was measured on day 1 and day 29 at 2 hours, 6 hours, 12 hours, 24 hours, and 48 hours for each co-medication group. Immune cell populations were also measured. Specifically, the percentage of B cells (FIG. 86A), B1a cells (FIG. 86B), and monocytes (FIG. 86C) in PBMCs was measured for each co-medication group at day-7, 24 hours post first injection, and 24 hours post fifth injection. B cell activation is reflected in FIG. 87. The percentage of activated B cells in circulating B cells was measured for each co-medication group at day-7, 24 hours post first injection, and 24 hours post fifth injection.
Monocyte activation is reflected in FIG. 88. The percentage of activated monocytes/macrophages in circulating PBMCs was measured for each co-medication group at day-7, 24 hours post first injection, and 24 hours post fifth injection. […] An increase in the percentage of activated monocytes/macrophages post injection was only observed in the fingolimod co-medication group.

[1] = co-medication with hEPO mRNA MC3-LNP, 24 hours post first injection

| Frequencies of monocytes in PBMCs (co-medication) | Percentage of activated monocytes/macrophages post injection (co-medication) | B cell frequencies in PBMCs (cynomolgus monkey, in vivo) | Percentage of activated B cells in circulating B cells (cynomolgus monkey, in vivo) | SMILES | Percentage of activated B cells in circulating B cells [1] |
| --- | --- | --- | --- | --- | --- |
| significant decrease | increase |  |  | CCCCCCCCc1ccc(CCC(N)(CO)CO)cc1 [fingolimod] | normal B cell activation similar to that of the control group |
|  |  |  |  | COc1cc(Nc2ncc(F)c(Nc3ccc4c(n3)N(COP(=O)(O)O)C(=O)C(C)(C)O4)n2)cc(OC)c1OC [fostamatinib] | normal B cell activation similar to that of the control group |
|  |  | slightly reduced | B cell activation was not observed | CC[C@H](Nc1ncnc2[nH]cnc12)c1nc2cccc(F)c2c(=O)n1-c1ccccc1 [idelalisib] |  |
